In one assay the target is T1, oxytocin receptors (Rattus norvegicus, UniProt P70536).
T1 construct: The uteri are dissected out, cleaned of fat and connective tissues; from tissue; host or cells: uterus of DES-treated female Sprague-Dawley rats
T1 sequence (P70536 1-388): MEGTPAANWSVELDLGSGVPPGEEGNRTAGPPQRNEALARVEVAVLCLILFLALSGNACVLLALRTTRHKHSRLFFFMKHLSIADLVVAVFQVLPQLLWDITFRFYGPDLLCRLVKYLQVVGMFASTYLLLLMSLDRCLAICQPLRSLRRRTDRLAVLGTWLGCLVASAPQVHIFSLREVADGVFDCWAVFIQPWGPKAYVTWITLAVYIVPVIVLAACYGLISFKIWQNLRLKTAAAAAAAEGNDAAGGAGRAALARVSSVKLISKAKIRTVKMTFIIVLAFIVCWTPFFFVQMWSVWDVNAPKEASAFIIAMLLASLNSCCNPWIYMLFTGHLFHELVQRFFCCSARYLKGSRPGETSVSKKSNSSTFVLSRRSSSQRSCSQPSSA
The assay is described as follows: Oxytocin Receptor Binding. The note with it: for IC50: 1.0 nM [3H]oxytocin. In outline:
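IC50 is the concentration displacing 50% of 1.0 nM [3H]OT, incubated 60 min at 22 °C in pH 7.4 Tris/MgCl2 buffer plus protease inhibitors, then filtered. Receptor source: uterine membranes from rats given 0.3 mg/kg DES i.m. 18 h earlier. 1.0 uM cold OT defined non-specific binding.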

A further assay concerns Vasopressin V2. The assay is described as follows: Vasopressin V2 Antagonist Activity in Conscious Hydrated Rats. In kind it is in vivo, rat. The note with it: 10 mg/kg orally, AVP 0.4 μg/kg i.p. In outline:
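Four-hour urine output, osmolality and electrolytes (Na+, K+, Cl−) recorded in water-loaded rats (30 mL/kg deionized water orally) given AVP i.p. at 0.4 μg/kg. Test compounds were given orally at 0.1–100 mg/kg 1 h before AVP; 2–4 rats per compound.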

Assay [1] concerns the target T2, Human V2 Vasopressin Receptor (Homo sapiens, UniProt P30518).
T2 construct: expressed in transfected cells; host or cells: mouse fibroblast cell line LV-2
The assay is described as follows: Binding to Membranes of Mouse Fibroblast Cell Line (LV-2) Transfected with the cDNA Expressing the Human V2 Vasopressin Receptor. The note with it: LV-2 cell membranes, human V2; read-out: V2 IC50 (**). The procedure:
Binding to Membranes of Mouse Fibroblast Cell Line (LV-2) Transfected with the cDNA Expressing the Human V2 Vasopressin Receptor
Flasks of 175 ml capacity, containing attached cells grown to confluence, are cleared of culture medium by aspiration. The flasks containing the attached cells are rinsed with 2×5 ml of phosphate buffered saline (PBS) and the liquid aspirated off each time. Finally, 5 ml of an enzyme free dissociation Hank's based solution (Specialty Media, Inc., Lafayette, N.J.) is added and the flasks are left undisturbed for 2 min. The content of all flasks is. poured into a centrifuge tube and the cells pelleted at 300× g for 15 min. The Hank's based solution is aspirated off and the cells homogenized with a polytron at setting #6 for 10 sec in 10.0 mM Tris.HCl buffer, pH 7.4 containing 0.25M sucrose and 1.0 mM EDTA. The homogenate is centrifuged at 1500× g for 10 min to remove ghost membranes. The supernatant fluid is centrifuged at 100,000× g for 60 min. to pellet the receptor protein. Upon completion, the pellet is resuspended in a small volume of 50.0 mM Tris. HCl buffer, pH 7.4. The protein content is determined by the Lowry method and the receptor membranes are suspended in 50.0 mM Tris.HCl buffer containing 0.1 mM phenylmethylsulfonylfluoride (PMSF) and 0.2% bovine serum albumin (BSA) to give 2.5 mg receptor protein per ml of suspension.
Arginine^8, vasopressin (S.A. 75.0 Ci/mmole) at 0.8 nM and the reaction initiated by the addition of 80.0 μl of tissue membranes (200.0 μg tissue protein). The plates are left undisturbed on the bench top for 120 min to reach equilibrium. Non specific binding is assessed in the presence of 1.0 μM of unlabeled ligand, added in 20 μl volume. For test compounds, these are solubilized in 50% dimethylsulfoxide (DMSO) and added in 20.0 μl volume to a final incubation volume of 200 μl. Upon completion of binding, the content of each well is filtered off, using a Brandel® cell Harvester (Gaithersburg, Md.). The radioactivity trapped on the filter disk by the ligand-receptor complex is assessed by liquid scintillation counting in a Packard LS Counter, with an efficiency of 65% for tritium. The data are analyzed for IC50 values by the LUNDON-2 program for competition (LUNDON SOFTWARE, Ohio).

Assay [2] addresses T3, V1 Receptor Subtype in Human Platelet (Homo sapiens, UniProt P37288).
T3 construct: tissue Hudson Valley Blood Services, Westchester Medical Center, Valhalla, N.Y; host or cells: human platelets (frozen platelet rich plasma)
The assay is described as follows: Binding to Vasopressin V1 receptor subtype in Human Platelet Membranes. Conditions: human platelet membranes. As to the method: Radioligand Binding Experiments with Human Platelet Membranes (a) Platelet Membrane Preparation: Frozen platelet rich plasma (PRP), (Platelet Source: Hudson Valley Blood Services, Westchester Medical Center, Valhalla, N.Y.) are thawed to room temperature. The tubes containing the PRP are centrifuged at 16,000×g for 10 min. at 4° C. and the supernatant fluid discarded. […] The suspension is recentrifuged at 16,000× g for 10 min. This washing step is repeated one more time. The wash discarded and the lysed pellets homogenized in low ionic strength buffer of Tris.HCl, 5.0 mM, pH 7.5 containing 5.0 mM EDTA. The homogenate is centrifuged at 39,000× g for 10 min. The resulting pellet is resuspended in Tris. […] The final pellet is resuspended in 50.0 mM Tris. HCl buffer pH 7.4 containing 120 mM NaCl and 5.0 mM KCl to give 1.0-2.0 mg protein per ml of suspension. […] Platelet Membranes […] Then add 20 μl of [^3 H]Ligand (Manning or […] Vasopressin), to give final concentrations ranging from 0.01 to 10.0 nM. Initiate the binding by adding 80.0 μl of platelet suspension (approx. 100 μg protein). Mix all reagents by pipetting the mixture up and down a few times. Non specific binding is measured in the presence of 1.0 μM of unlabeled ligand (Manning or […] Vasopressin). Let the mixture stand undisturbed at room temperature for ninety (90) min. Upon this time, rapidly filter off the incubate under vacuum suction over GF/B filters, using a Brandel Harvester. Determine the radioactivity caught on the filter disks by the addition of liquid scintillant and counting in a liquid scintillator.

The structures appear in SMILES notation.

Experimental findings from US5624923A, “Tricyclic diazepine vasopressin antagonists and oxytocin antagonists” (priority 1995, dated 1997) are described below.

T3 sequence (P37288 whole entry): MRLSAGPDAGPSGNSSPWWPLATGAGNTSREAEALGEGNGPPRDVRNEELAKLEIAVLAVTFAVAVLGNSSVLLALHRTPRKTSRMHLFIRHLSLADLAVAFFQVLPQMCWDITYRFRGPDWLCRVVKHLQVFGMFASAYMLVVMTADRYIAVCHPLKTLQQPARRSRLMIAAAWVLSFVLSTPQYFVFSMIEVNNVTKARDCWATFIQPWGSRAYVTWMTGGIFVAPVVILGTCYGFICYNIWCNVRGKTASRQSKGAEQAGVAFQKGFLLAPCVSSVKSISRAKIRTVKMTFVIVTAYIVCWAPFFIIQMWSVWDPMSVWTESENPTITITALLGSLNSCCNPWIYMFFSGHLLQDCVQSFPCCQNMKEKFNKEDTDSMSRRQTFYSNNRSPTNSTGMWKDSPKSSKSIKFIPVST
T2 sequence (P30518 whole entry): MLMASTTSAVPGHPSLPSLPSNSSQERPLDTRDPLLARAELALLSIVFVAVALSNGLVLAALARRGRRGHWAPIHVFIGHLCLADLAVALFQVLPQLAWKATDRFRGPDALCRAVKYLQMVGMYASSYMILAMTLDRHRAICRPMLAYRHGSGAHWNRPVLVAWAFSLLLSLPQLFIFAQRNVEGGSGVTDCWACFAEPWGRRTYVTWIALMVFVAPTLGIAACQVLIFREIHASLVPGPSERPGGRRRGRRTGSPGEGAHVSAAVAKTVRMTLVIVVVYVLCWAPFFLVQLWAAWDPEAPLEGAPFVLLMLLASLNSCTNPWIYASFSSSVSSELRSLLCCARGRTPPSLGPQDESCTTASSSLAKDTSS

On to `O=C(Nc1ccc(C(=O)N2Cc3ccc(Cl)n3Cc3ccccc32)cc1)c1ccc(Cl)cc1Cl` [Example 54, N-[4-(3-Chloro-5H-pyrrolo[2,1-c]-[1,4]benzodiazepin-10(11H)yl-carbonyl)phenyl]-2,4-dichloro-benzamide], for which the IC50 (as a rule, the concentration that inhibits the measured activity by half) on oxytocin receptors was 160 nM; in assay [1] it was 7 nM; in assay [2] it was 310 nM. The inhibition (commonly the share of the control response that was lost under treatment) at 10 µM on oxytocin receptors ([3H]oxytocin) amounted to 94%. This compound showed an Osmolality in the assay on Vasopressin V2 of 1275 mOsm/kg. Further, the “Urine Volume” value in the assay with Vasopressin V2 was found to be 5 ml/4 hrs.
With `Cc1ccccc1C(=O)Nc1ccc(C(=O)N2Cc3ccnn3Cc3ccccc32)c(Cl)c1` [Example 519, N-[4-(4H-Pyrazolo[5,1-c][1,4]benzodiazepin-5(10H)-ylcarbonyl)-3-chlorophenyl]-2-methylbenzamide], the figures for the IC50 (at oxytocin receptors; in assay [1]; in assay [2]) were 480 nM, 3.2 nM and 120 nM, respectively. At oxytocin receptors ([3H]oxytocin), at 10 µM the inhibition was 97%. The same compound displayed an Osmolality with Vasopressin V2 of 399 mOsm/kg. The “Urine Volume” value with Vasopressin V2 is given as 19.9 ml/4 hrs.
On to `O=C(Nc1ccc(C(=O)N2Cc3ccnn3Cc3ccccc32)c(Cl)c1)c1ccc(Cl)cc1Cl` [Example 520, N-[4-(4H-Pyrazolo[5,1-c][1,4]benzodiazepin-5(10H)-ylcarbonyl)-3-chlorophenyl]-2,4-dichlorobenzamide], for which the IC50 at oxytocin receptors amounted to 2200 nM; in assay [1], 4.4 nM; in assay [2], 850 nM. Also, at oxytocin receptors ([3H]oxytocin), the inhibition at 10 µM is 79%. In the assay on Vasopressin V2, the Osmolality was 394 mOsm/kg. Moreover, the “Urine Volume” value with Vasopressin V2 is given as 18.5 ml/4 hrs.
As to `CSc1ccccc1C(=O)Nc1ccc(C(=O)N2Cc3cccn3Cc3ccccc32)c(Cl)c1` [Example 524, N-[4-(5H-pyrrolo[2,1-c][1,4]benzodiazepin-10(11H)-ylcarbonyl)-3-chlorophenyl]-2-(thiomethylbenzamide)], the IC50 was 1800 nM at oxytocin receptors, 1.2 nM in assay [1] and 170 nM in assay [2]. The compound further gave an inhibition at 10 µM at oxytocin receptors ([3H]oxytocin) of 84%. Besides, in the assay with Vasopressin V2, the Osmolality is reported as 528 mOsm/kg. Moreover, the “Urine Volume” value in the assay on Vasopressin V2 came to 10 ml/4 hrs.
Regarding `O=C(Nc1ccc(C(=O)N2Cc3cccn3Cc3ccccc32)c(Cl)c1)c1ccccc1Cl` [Example 526, N-[4-(5H-pyrrolo[2,1-c][1,4]benzodiazepin-10(11H)-ylcarbonyl]-3-chlorophenyl]-2-chlorobenzamide], the IC50 on oxytocin receptors was 470 nM; in assay [1], 3.3 nM; in assay [2], 50 nM. At oxytocin receptors ([3H]oxytocin), at 10 µM the inhibition was 97%. This compound showed an Osmolality with Vasopressin V2 of 455 mOsm/kg. Further, in the assay on Vasopressin V2, the “Urine Volume” value was 17.8 ml/4 hrs.
In the case of `O=C(Nc1ccc(C(=O)N2Cc3cccn3Cc3ccccc32)c(Cl)c1)c1c(Cl)cccc1Cl` [Example 529, N-(4-(5H-pyrrolo[2,1-c][1,4]benzodiazepin-10(11H-)-ylcarbonyl]-3-chlorophenyl]-2,6-dichlorobenzamide], the IC50 amounted to 450 nM at oxytocin receptors, 2 nM in assay [1] and 990 nM in assay [2]. In addition, on oxytocin receptors ([3H]oxytocin), the inhibition at 10 µM was determined as 92%. The compound also came in with an Osmolality in the assay on Vasopressin V2 of 569 mOsm/kg. Further, the “Urine Volume” value in the assay on Vasopressin V2 came to 10.5 ml/4 hrs.
`O=C(Nc1ccc(C(=O)N2Cc3cccn3Cc3ccccc32)c(Cl)c1)c1cccc(F)c1` [Example 538, N-[4-(5H-pyrrolo[2,1-c][1,4]benzodiazepin-10(11H)-ylcarbonyl)-3-chlorophenyl]-3-fluorobenzamide]: the IC50 is 900 nM on oxytocin receptors, 1 nM in assay [1] and 52 nM in assay [2]. Also, testing at 10 µM at oxytocin receptors ([3H]oxytocin) gave an inhibition of 90%.
In the same order, the values of `Cc1c(F)cccc1C(=O)Nc1ccc(C(=O)N2Cc3cccn3Cc3ccccc32)cc1Cl` [Example 546, N-[4-(5H-pyrrolo[2,1-c][1,4]benzodiazepin-10(11H)-ylcarbonyl)-2-chlorophenyl]-3-fluoro-2-methylbenzamide] are 990 nM, 73 nM, 66 nM and 91%.
Turning to `Cc1ccc(F)cc1C(=O)Nc1ccc(C(=O)N2Cc3cccn3Cc3ccccc32)cc1Cl` [Example 547, N-[4-(5H-pyrrolo[2,1-c][1,4]benzodiazepin-10(11H)-ylcarbonyl)-2-chlorophenyl]-5-fluoro-2-methylbenzamide], the IC50 on oxytocin receptors worked out at 260 nM; in assay [1], 4 nM; in assay [2], 16 nM. This compound also had an inhibition at 5 µM on oxytocin receptors (dose 5 μM, [3H]oxytocin) of 97%.
Turning to `O=C(Nc1ccc(C(=O)N2CCc3cccn3-c3ccccc32)c(Cl)c1)c1ccc(Cl)cc1Cl` [Example 609, N-[4-[(6,7-Dihydro-5H-pyrrolo[1,2-a]-[1,5]benzodiazepin-5-yl)carbonyl]-3-chlorophenyl]-2,4-dichlorobenzamide], the IC50 is 2700 nM at oxytocin receptors, 21 nM in assay [1] and 2400 nM in assay [2]. Besides, the inhibition at 10 µM on oxytocin receptors ([3H]oxytocin) amounted to 66%.
